Key:
Experiment in all cases: Postemergence foliar-applied herbicidal mixtures, weeds common to row crops
Format in all cases: in vivo
[1] = system: AVEFA Avena fatua L. (wild oat)
Text: (§1) Evaluation of Postemergence Foliar-Applied Herbicidal Mixtures for Control of Weeds Common to Row Crops such as Corn and Soybeans. Seeds or nutlets of the desired test plant species were planted in a soil matrix prepared by mixing a loam or sandy loam soil (e.g., 28.6 percent silt, 18.8 percent clay, and 52.6 percent sand, with a pH of about 5.8 and an organic matter content of about 1.8 percent) and calcareous grit in an 80 to 20 ratio. The soil matrix was contained in plastic pots with a surface area of 84.6 cm^2 and a volume of 560 cubic centimeters (cm^3). When required to ensure good germination and healthy plants, a fungicide treatment and/or other chemical or physical treatment was applied. The plants were grown for 7-31 d in a greenhouse with an approximate 15 h photoperiod which was maintained at about 23-29° C. during the day and 22-28° C. during the night. Nutrients (Peters Excel® 15-5-15 5-Ca 2-Mg) and water were added on a regular basis and supplemental lighting was provided with overhead metal halide 1000-Watt lamps as necessary. The plants were employed for testing when they reached the first, second, or third true leaf stage.
(§2) Treatment requirements were calculated based upon the rates being tested, the concentration of active ingredient or acid equivalent in the formulation, and a 12 mL application volume at a rate of 187 L/ha.
(§3) Treatments consisted of the potassium (K^+) salt of 4-amino-3-chloro-6-(4-chloro-2-fluoro-3-methoxyphenyl)-pyridine-2-carboxylic acid (Cmpd 4) formulated as a soluble liquid (SL), the propargyl ester of 4-amino-3-chloro-6-(4-chloro-2-fluoro-3-methoxyphenyl)-pyridine-2-carboxylic acid (Cmpd 2) as technical grade material, or the benzyl ester of 4-amino-3-chloro-6-(4-chloro-2-fluoro-3-methoxyphenyl)-pyridine-2-carboxylic acid (Cmpd 3) as technical grade material and quizalofop-p-ethyl (Assure® II) alone and in combination. Forms of compound of formula (I) and quizalofop-P-ethyl were applied on an acid equivalent basis.
(§4) For treatments comprised of formulated compounds, measured amounts of compounds were placed individually in 25 mL glass vials and diluted in a volume of 1.5% (v/v) Agri-Dex® crop oil concentrated to obtain 6× stock solutions. […] Application solutions were prepared by adding an appropriate amount of each stock solution (typically 2 mL) and diluted to the appropriate final concentrations with the addition of an appropriate amount of an aqueous mixture of 1.5% (v/v) crop oil concentrate and water so that the final spray solutions contained 1.25+/−0.05% (v/v) crop oil concentrate.
(§5) For treatments comprised of formulated and technical compounds, weighed amounts of the technical materials were placed individually in 25 mL glass vials and dissolved in a volume of 97:3 v/v acetone/DMSO to obtain 6× stock solutions, and measured amounts of the formulated compounds were placed individually in 25 mL glass vials and diluted in a volume of 1.5% (v/v) crop oil concentrate or water to obtain 6× stock solutions. […] Application solutions were prepared by adding an appropriate amount of each stock solution (e.g., 2 mL) and diluted to the appropriate final concentrations with the addition of an appropriate amount of an aqueous mixture of 1.5% (v/v) crop oil concentrate and water so that the final spray solutions contained 1.25% (v/v) crop oil concentrate. When required, additional water and/or 97:3 v/v acetone/DMSO can be added to individual application solutions so that the final acetone and DMSO concentrations of the application solutions being compared are 16.2% and 0.5%, respectively.
(§6) All stock solutions and applications solutions were visually inspected for compound compatibility prior to application. Compound requirements are based upon a 12 mL application volume at a rate of 187 liters per hectare (L/ha). […]

[2] = system: DIGSA Digitaria sanguinalis (L.) Scop. (large crabgrass); conditions: Quizalofop-P-ethyl 3.56 g ae/ha
Text: as §1, §2, §3, §4, §5, §6

[3] = system: LOLMU Lolium multiflorum Lam. (Italian ryegrass); conditions: Quizalofop-P-ethyl 3.56 g ae/ha
Text: as §1, §2, §3, §4, §5, §6

[4] = system: OEOBI Oenothera biennis (evening primrose)
Text: as §1, §2, §3, §4, §5, §6

[5] = system: SORHA Sorghum halepense (L.) Pers. (Johnsongrass); conditions: Quizalofop-P-ethyl 7.125 g ae/ha
Text: as §1, §2, §3, §4, §5, §6

[6] = Quizalofop-P-ethyl 7.125 g ae/ha
[7] = Quizalofop-P-ethyl 14.25 g ae/ha

**Q.** With CCOC(=O)[C@@H](C)Oc1ccc(Oc2cnc3cc(Cl)ccc3n2)cc1 [Quizalofop-P-ethyl, quizalofop-P-ethyl] as the molecule, how does the “Percent (%) injury rated visually 14 DAA Obs” value ([1]; Quizalofop-P-ethyl 3.56 g ae/ha) read?
**A.** 15%

**Q.** What about the “Percent (%) injury rated visually 14 DAA Obs” value [1, 6] of the same molecule?
**A.** 15%

**Q.** And the “Percent (%) injury rated visually 14 DAA Obs” value [1, 7]?
**A.** 40%

**Q.** What about the “Percent (%) injury rated visually 14 DAA Obs” value [2] of the same molecule?
**A.** 20%

**Q.** And the “Percent (%) injury rated visually 14 DAA Obs” value [3]?
**A.** 0%

**Q.** And the “Percent (%) injury rated visually 14 DAA Obs” value [4, 6]?
**A.** 0%

**Q.** And the “Percent (%) injury rated visually 14 DAA Obs” value [4, 7]?
**A.** 0%

**Q.** And the “Percent (%) injury rated visually 14 DAA Obs” value ([4]; Quizalofop-P-ethyl 28.5 g ae/ha)?
**A.** 0%

**Q.** What about the “Percent (%) injury rated visually 14 DAA Obs” value [5] of the same molecule?
**A.** 50%
